Assay results taken from US6242428A, “Nucleoside analogs and uses in treating Plasmodium falciparum infection” (Unisearch Limited, priority 1998, dated 2001).
Where two headings read alike, the source gives them in different places.

Assays:
[1] = system: P. falciparum strain D6 (chloroquin non-resistant); assay: U.S. Army Antimalarial Test Program in vitro screen, strain D6; format: cell-based, Plasmodium falciparum; details: 15 dimers, D6 and W2 stated together
Excerpt: (§1) Fifteen L-nucleoside dimers (L-101, L-103, L-103A, L-107, L-110, L-111, L-112, L-114, L-117, L-120, L-122, L-124, L-125, L-133 & L-138) from Lipitek's library were submitted for in vitro screen to the U.S. Army Antimalarial Test Program (for the structures of the compounds, see FIG. 7). The compounds have been tested for their activity against two P. falciparum strains: D6 (chloroquin non-resistant) and W2 (chloroquin resistant).

[2] = system: P. falciparum infected erythrocytes (trophozoites); format: in vitro ADME, human erythrocytes infected with Plasmodium falciparum
Experimental: (§2) The metabolism of the L-nucleoside conjugates was studied by HPLC analysis. The primary aim was to determine their ability to be catabolized by parasite purine salvage enzymes. Some effect on the purine metabolic pools was also observed.
(§3) For each HPLC determination 200 μL of packed cells of 80-90% trophozoite infected cells were used. These were isolated from in vitro cultures by synchronization of the parasites in in vitro cultures using sterile D-sorbitol (L. Lambros and J. P. Vanderberg, Parasitol. 65, 418-420 (1979)) followed by separation of the trophozoites from non infected erythrocytes by Percoll gradients as described previously (A. M. Gero, H. V. Scott, W. J. O'Sullivan and R. I. Christopherson, Mol. Biochem. Parasitol. 34, 87-89 (1989)). Trophozoites were incubated at 37° C. for 2 hours with each compound to be tested. Compounds were incubated with both whole infected cells as whole and lyzed uninfected normal erythrocytes to determine:
a) entry to the cell (whether they were transported);
Drug incubation was terminated by centrifugation through silicon oil using the method of Upston and Gero (J. M. Upston and A. M. Gero, Biochem. Biophys. Acta. 1236, 249-258 (1995)). This procedure separated intact trophozoites from extracellular non-transported drug solution.
(§4) The metabolism of nucleosides with potential chemotherapeutic activity was assessed by the analysis of cytoplasmic samples by reverse phase ion-pair high performance liquid chromatography (R. S. Toguzov, Y. V. Tikhonov, A. M. Pimenov, V. Prokudin, Journal of Chromatography, I. Biomedical Appl. 434, 447-453 (1988)). Nucleotides, nucleosides and bases were separated by this HPLC method.
It has been established that transport and uptake in parasite invaded cells is different from that of normal blood erythrocytes (A. M. Gero & A. M. Wood, In: Pyrine & Pyrimidine Methabolism in Man VII, Part A. (R. A. Harkness et al., Eds) Plenum Press, NY, 169-172 (1991)). Invasion by the malaria parasite comprises the cell membrane, allowing penetration of unnatural substances of various size and shape, whereas normal cells are very selective in uptake. It was shown that L-nucleosides and their derivatives easily penetrate invaded cells, while they have a very slow rate of uptake into normal cells, if they enter at all. In order to obtain preliminary data on transport, uptake and metabolism, the HPLC method was used to analyze the following 10 Lipitek compounds: L-101, L-103, L-109, L-111, L-117, L-133, L-138, GCl 1007, GCl 1027, GCl 1069.
(§5) These compounds were chosen for the identification of possible metabolites. In this experiment the compounds were incubated with both whole infected cells, and with whole and lysed uninfected cells, followed by the separation of unreacted compound and HPLC analysis.

P. falciparum = assay: In vitro toxicity against P. falciparum in culture (radiolabelled hypoxanthine incorporation / lactate dehydrogenase assay); format: cell-based, Plasmodium falciparum, FCQ27; details: for toxicity against P. falciparum, in words: statement in the transport and metabolism study
Experimental: P. falciparum, FCQ27, was maintained in culture using the techniques described by Trager & Jensen (W. Traqer and J. B. Jensen, Science, 193 673-675 (1976)). Cultures containing 2% hematocrit suspensions of parasitized human type O^+ erythrocytes in RPMI 1640 medium, supplemented with 25 mM HEPES-KOH, pH 7.2, 25 mM NaHCO3 and 10% human type O^+ serum (v/v) are maintained in modular incubator chambers at 37° C. in a gas mixture of 5% O2, 5% CO2 and 90% N2. The isolate of P. falciparum used in these experiments was FCQ27, routinely maintained in synchronized or asynchronous in vitro cultures at low hematocrit.
The potential toxicity of nucleoside analogues against P. falciparum in culture was tested in microtitre plates over the range of drug concentrations for 24 hours. The procedures for monitoring parasite viability is well established (A. M. Gero, H. V. Scott, W. J. O'Sullivan and R. I. Christopherson, Mol. Biochem. Parasitol. 34, 87-89 (1989)) and is based on radiolabelled hypoxanthine or isoleucine incorporation. The incorporation of [G-^3 H]hypoxanthine into the nucleic acids of P. falciparum was used to assess the viability of the parasite in vitro. Microculture plates were prepared with each well containing 225 μl of a 2% hematocrit culture of asynchronous parasited erythrocytes (1% parasitized cells). Each plate, containing varying concentrations of the drug to be studied (up to 200 μM final concentration for initial screen), was incubated for 24 h at 37° C. in a gas mixture of 5% O2, 5% CO2 and 90% N2, at which point [G-^3 H] hypoxanthine was added to each well and the incubation continued under identical conditions for a further 18-20 h. The control infected cells (i.e. without drug), routinely reached a parasitemia of 6-8% before harvesting. Expediency was aided by 96-well plate counter using lactate dehydrogenase for the drug susceptibility assay (L. K. Basco, F. Marguet, M. T. Makler and J. Lebbras, Exp. Parasitol. 80, 260-271 (1995); M. T. Makler and D. J. Hinrichs; Am. J. Trop. Med. Hyg. 48, 205-210 (1993)). This assay gave the identical results to the hypoxanthine technique. In addition, for each experiment, microscopic counting of Giemsa stained thin slides was used as a control.
The biological screen involved evaluation of the compounds against the protozoan P. falciparum in in vitro culture. The range of drug concentrations was used independently by two assays. One, radiolabelled hypoxanthine incorporation into the nucleic acid of P. falciparum, and the other, more expedient assay, a 96-well plate susceptibility assay using lactate dehydrogenase. Both assays gave identical results. In addition, microscopic counting of Giemsa stained thin slides was used as a control. Examples of experimental curves are attached as Appendix 2. The biological tests were done at several concentrations. The highest concentration was 200 μM, the compounds were considered active at concentrations less than 40 μM.

[3] = system: P. falciparum infected erythrocytes (trophozoites); format: in vitro ADME, human erythrocytes infected with Plasmodium falciparum; remark: listed apart in the source
Experimental: as §2, §3
b) the metabolic effect within the cell (was the compound metabolized);
as §4, §5

[4] = system: P. falciparum strain W2 (chloroquin resistant); assay: U.S. Army Antimalarial Test Program in vitro screen, strain W2; format: cell-based, Plasmodium falciparum; details: 15 dimers, D6 and W2 stated together
Excerpt: as §1

[5] = Solubility remark in the in vitro testing; details: Tables 1 and 6
[6] = system: erythrocyte infected with P. falciparum; details: cited from earlier work
[7] = system: normal erythrocytes and other cell types; details: cited from earlier work
[8] = system: human prostate phosphotransferase; details: cited from earlier work
[9] = Plasmodium falciparum, 24 h, Table 1, 24 h drug exposure, up to 200 μM, read-out: IC50
[10] = Plasmodium falciparum, Table 2, FUdR linkage position 5', read-out: IC50
[11] = Plasmodium falciparum, Table 3, β-L configuration of the L-nucleoside, read-out: IC50
[12] = Plasmodium falciparum, Table 4, Phosphate "bridge" O=P--O, read-out: IC50

Compound	activity ranking in words, strain D6 [1]	entry to the infected cell [2]	In vitro activity against P. falciparum, in words (P. falciparum)	IC50 (P. falciparum; [9])	IC50 (P. falciparum; [10])	IC50 (P. falciparum; [12])	toxicity against P. falciparum, in words (P. falciparum)	activity ranking in words, strain W2 [4]	also measured
Nc1ncnc2c1ncn2[C@@H]1C[C@@H](OP(=O)(O)OC[C@H]2O[C@@H](n3cc(F)c(=O)[nH]c3=O)C[C@@H]2O)[C@H](CO)O1 [L-138, β-L-dA, β-D-FUdR]	most active	entered the infected cells	most active	5 µM	5 µM	5 µM	toxic against P. falciparum	most active	IC50 (P. falciparum; [11]): 5 µM; IC50 (P. falciparum; Plasmodium falciparum, Table 4, Phosphorothioate "bridge" S=P--O, read-out: IC50): 100 µM; metabolism by the infected cells [3]: metabolized by the infected cells
β-L-dG, β-D-FUdR [L-133]	most active	entered the infected cells	most active	–	–	–	toxic against P. falciparum	most active	IC50 (P. falciparum; Table 1, 24 h drug exposure, up to 200 μM, read-out: IC50): 14 µM; IC50 (P. falciparum; Table 2, FUdR linkage position 5', read-out: IC50): 14 µM; metabolism by the infected cells [3]: metabolized by the infected cells
α-L-FUdR 3'-5'SATE [B07]	–	–	–	–	–	–	–	–	Solubility (printed in the IC50/ID50 column) [5]: Solubility problem
O=c1[nH]c(=O)n([C@@H]2C[C@@H](OP(=O)(O)OC[C@H]3O[C@@H](n4cc(F)c(=O)[nH]c4=O)C[C@@H]3O)[C@H](CO)O2)cc1F [L-110, 3'-O-(β-D-5-fluoro-2'-deoxyuridinyl)-β-L-5-fluoro-2'-deoxyuridine]	most active	–	–	20 µM	20 µM	–	–	most active	IC50 (P. falciparum; [11]): 20 µM
O=c1[nH]c(=O)n([C@@H]2C[C@@H](O)[C@H](COP(=O)(O)O[C@@H]3C[C@@H](n4cc(F)c(=O)[nH]c4=O)O[C@H]3CO)O2)cc1F [L-109, 3'-O-(β-L-5-fluoro-2'-deoxyuridinyl)-β-L-5-fluoro-2'-deoxyuridine]	–	could not enter the infected cell	did not exhibit any activity	> 200 µM	–	–	not toxic	–	–
O=c1[nH]c(=O)n([C@H]2C[C@@H](OP(=O)(O)OC[C@H]3O[C@@H](n4cc(F)c(=O)[nH]c4=O)C[C@@H]3O)[C@H](CO)O2)cc1F [L-103]	–	entered the infected cells	–	20 µM	20 µM	20 µM	toxic against P. falciparum	–	IC50 (P. falciparum; Plasmodium falciparum, Table 3, α-L configuration of the L-nucleoside, read-out: IC50): 20 µM
O=c1[nH]c(=O)n([C@H]2C[C@H](OP(=O)(O)OC[C@H]3O[C@@H](n4cc(F)c(=O)[nH]c4=O)C[C@@H]3O)[C@@H](CO)O2)cc1F [L-101, [β-D]2 -FUdR]	most active	entered the infected cells	most active	15 µM	15 µM	15 µM	toxic against P. falciparum	most active	metabolism by the infected cells [3]: metabolized by the infected cells
β-L-FUdR 3'-5'SATE [B05]	–	–	–	–	–	–	–	–	Solubility (printed in the IC50/ID50 column) [5]: Solubility problem
Nc1ncnc2c1ncn2[C@H]1O[C@@H](CO)[C@H](O)[C@@H]1O [GCI 1032, β-L-adenosine]	–	–	–	–	–	–	–	–	transport into infected erythrocyte [6]: selectively transported into an erythrocyte infected with P. falciparum; IC50 (P. falciparum; Plasmodium falciparum, 24 h): > 200 µM; permeability/uptake of normal erythrocytes and other cells [7]: completely impermeable
O=c1ccn([C@H]2O[C@@H](CO)[C@H](O)[C@@H]2O)c(=O)[nH]1 [β-L-uridine]	–	–	–	–	–	–	–	–	phosphorylation at the 5'-position [8]: not phosphorylated at the 5'-position
O=c1ccn([C@@H]2C[C@@H](OP(=O)(O)OC[C@H]3O[C@@H](n4cc(F)c(=O)[nH]c4=O)C[C@@H]3O)[C@H](CO)O2)c(=O)[nH]1 [L-117]	most active	entered the infected cells	–	35 µM	–	35 µM	toxic against P. falciparum	most active	–
Nc1ncnc2c1ncn2[C@H]1C[C@@H](O)[C@H](CO)O1 [GCI 1069, α-L-dA]	–	entered the infected cells	–	> 200 µM	–	–	toxic against P. falciparum	–	–
